The text below walks through data of paper PMC13119441, “Linking Chemical Profile to Enzyme Inhibition: A Comprehensive Bio-Guided Study of Lippia origanoides Kunth Essential Oil” (Plants, 2026).

In general, inhibition refers to the relative decrease from the control value, in per cent.

For this assay, the target named is T1, butyrylcholinesterase (BChE) (Equus caballus, UniProt P81908).
T1 construct: purchased Merck Life Science S.r.l; (Milan, Italy); host or cells: equine serum
Put plainly: In vitro BChE inhibition test (spectrophotometric, Ellman). The note with it: 1.0 µg/mL in reaction mixture, read-out: % Enzyme Inhibition (n = 3). It is filed as biochemical, equine. On the technique in general: In Ellman's method for cholinesterases, released thiocholine reacts with DTNB.

Molecules are shown by their SMILES. Where a name gives a salt, the structure may show the parent alone.

T1 sequence (P81908 whole entry): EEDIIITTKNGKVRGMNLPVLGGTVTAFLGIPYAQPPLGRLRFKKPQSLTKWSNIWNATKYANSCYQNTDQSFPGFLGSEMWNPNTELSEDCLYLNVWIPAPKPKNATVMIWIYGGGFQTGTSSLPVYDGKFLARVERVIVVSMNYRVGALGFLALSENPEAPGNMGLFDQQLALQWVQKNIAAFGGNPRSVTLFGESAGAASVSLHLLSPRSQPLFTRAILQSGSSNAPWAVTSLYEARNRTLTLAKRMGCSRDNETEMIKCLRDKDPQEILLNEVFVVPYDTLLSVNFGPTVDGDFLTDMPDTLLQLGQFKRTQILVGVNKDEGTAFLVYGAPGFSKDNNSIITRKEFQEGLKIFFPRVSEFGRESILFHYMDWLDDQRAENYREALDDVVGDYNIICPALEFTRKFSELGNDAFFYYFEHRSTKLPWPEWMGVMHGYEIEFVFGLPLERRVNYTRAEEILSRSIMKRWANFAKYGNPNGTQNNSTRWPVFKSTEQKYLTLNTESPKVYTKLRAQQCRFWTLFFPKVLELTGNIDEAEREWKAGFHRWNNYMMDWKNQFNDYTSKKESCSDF
Protocol: The assays were optimized for essential oil matrices, particularly by adjusting solvent conditions (DMSO content), substrate/enzyme ratios, and assay timing to ensure measurements within the linear kinetic range. The percentage inhibition of AChE, BChE, α-glucosidase, lipase and tyrosinase was measured according to the equation below: % Inhibition=∆AControl−∆A(Sample)/∆AControl×100 where: ∆A (Control) = A Control − A Control Blank∆A(Sample) = A Sample − A Sample Blank
The buffers used in the experiment were: buffer A (50 mM Tris-HCl, pH 8), buffer B (50 mM Tris-HCl, pH 8, supplemented with 0.1% bovine albumin and 0.1% TWEEN20) and buffer C (50 mM Tris-HCl, pH 8, containing 0.1 M NaCl and 0.02 M MgCl2•6H2O). The solutions for both enzymes (0.22 U/mL) were prepared using buffer B. Acetylthiocholine iodide (ATCI) at 1.5 mM was dissolved in Millipore water, while butyrylthiocholine iodide (BTCI) was dissolved in buffer A. Ellman’s reagent solution (3 mM) was prepared in buffer C.
The final concentration of DMSO in the reaction mixture was 0.3%. The mixture was incubated at 30 °C for 6 min, after which absorbance was measured at 405 nm.

Regarding `COc1ccc2c3c1O[C@H]1C[C@@H](O)C=C[C@@]31CCN(C)C2` [Galanthamine, galanthamine hydrobromide], the inhibition at 1 µg/mL is 24.7%.
